Tested on: MCF-7 xenograft
Test: RPPA of protein expression, MCF-7 xenograft endpoint analysis
Type: in vivo, nude mice
Conditions: 4 mg/kg/day vs. PBS
Protocol: Frozen xenograft tissue samples were embedded in OCT, and 8 μm sections were obtained using a cryostat. […] The resulting whole tissue lysates were boiled for 8 min at 100° C. and then printed onto a nitrocellulose slide (Avid, Grace Biolabs) along with a BSA protein concentration curve to estimate total protein concentration in each lysate. Total protein levels were assessed in each sample by staining with Sypro Ruby Protein Blot Stain (Invitrogen) according to manufacturer's instructions.
The total protein concentration in each sample was estimated by printing onto a nitrocellulose slide along with a BSA standard concentration curve, and total protein levels were assessed by staining with Sypro Ruby Protein Blot Stain (Invitrogen) according to manufacturer's instructions. Tissue lysates were diluted to 250 μg/ml in extraction buffer and stored at −80° C. prior to printing of arrays. RPPA printing and analysis of xenograft samples was conducted as previously described (Wulfkuhle et al., Clin Cancer Res. 2012; 18:6426-35). Antibody staining intensities were quantified using the MicroVigene v5 Software Package (Vigenetech). Signaling pathway activation was evaluated by staining the arrays with 156 antibodies against signaling endpoints, mainly phosphorylated and cleaved protein products. Before use for RPPA analysis, antibody specificity was confirmed by Western blot and analysis as previously described (Wulfkuhle et al., Clin Cancer Res. 2012; 18:6426-35).

[1] = *separate RPPA analysis, separate β actin probe

Compound: CCCCCCNC(=N)NC(=N)NCc1ccccc1 [HBB, N1-hexyl-N5-benzyl-biguanide]
- fold change: 4EBP1 S65: 1.051
- fold change: 4EBP1 T37/46: 1.261
- fold change: 4EBP1 T70: 0.595
- fold change: A-Raf S299: 0.862
- fold change: AKT S473: 1.042
- fold change: AKT T308: 0.793
- fold change: ALK: 1.079
- fold change: ALK Y1604: 0.954
- fold change: AMPKalpha S485: 1.126
- fold change: AMPKbeta S108: 0.665
- fold change: ATF2 T69/71: 0.713
- fold change: ATM S1981: 1.034
- fold change: ATP CItrate Lyase S454: 1.000
- fold change: ATR S428: 0.810
- fold change: AXL: 0.566
- fold change: Acetyl-CoA Carboxylase S79: 0.927
- fold change: Actin beta: 1.000
- fold change: Aurora A T288/B T232/C T198: 0.646
- fold change: B-RAF: 1.130
- fold change: B-Raf S445: 0.764
- fold change: BAD: 2.424
- fold change: BAD S112: 0.833
- fold change: BAD S136: 0.958
- fold change: BCL-2: 0.825
- fold change: BIM: 0.727
- fold change: Bak: 0.789
- fold change: Bax: 0.807
- fold change: Bcl_xL: 0.909
- fold change: Beclin 1: 0.881
- fold change: CREB S133: 0.626
- fold change: Chk1 S345: 1.290
- fold change: Cl Caspase 3 D175: 1.109
- fold change: Cl Caspase 9 D315: 1.151
- fold change: Cl Caspase 9 D330: 1.244
- fold change: Cleaved PARP D214: 1.277
- fold change: Cofilin S3: 0.443
- fold change: CrkL Y207: 0.962
- fold change: Cyclin A: 1.779
- fold change: Cyclin B1 V152: 1.197
- fold change: Cyclin D1 (G124-326): 1.277
- fold change: Cyclin D1 T286: 0.611
- fold change: E-Cadherin: 0.669
- fold change: EGFR: 0.857
- fold change: EGFR Y992: 0.803
- fold change: EGFR Y1068: 1.089
- fold change: EGFR Y1148: 0.891
- fold change: EGFR Y1173: 0.954
- fold change: ER TOTAL: 1.687
- fold change: ER alpha S118: 0.964
- fold change: ERK 1-2 T202/Y204: 0.423
- fold change: ERK TOTAL: 0.791
- fold change: Elk S383: 1.402
- fold change: Ephrin A3 Y799/A4 Y799/A5 Y833: 1.149
- fold change: ErbB2/HER2 Y877: 0.951
- fold change: ErbB2/HER2 Y1248: 1.239
- fold change: ErbB3/HER3: 0.851
- fold change: ErbB3/HER3 Y1197: 1.223
- fold change: ErbB3/HER3 Y1289: 1.268
- fold change: FADD S194: 0.672
- fold change: FAK Y576/577: 1.021
- fold change: FKHR T24/FKHRL1 T32: 0.698
- fold change: FKHRL1 S253: 0.960
- fold change: FOXO1 S256: 0.854
- fold change: GRB2: 0.830
- fold change: GSK-3alpha/beta S21/9: 0.791
- fold change: HIF-1 alpha: 2.406
- fold change: HSP27 S82: 0.877
- fold change: HSP70: 1.453
- fold change: HSP90a T5/7: 0.945
- fold change: Heregulin: 20.774
- fold change: Histone H3 S28: 0.898
- fold change: IGF1R Y1135/36-IR Y1150/51: 1.101
- fold change: IGF-1R Y1131/IR Y1146: 1.019
- fold change: IGFBP7: 0.992
- fold change: IL6: 1.260
- fold change: IRS1: 1.014
- fold change: IRS-1 S612: 0.952
- fold change: IkappaB-alpha S32/36: 1.130
- fold change: Insulin Receptor Beta: 1.261
- fold change: Jak2 Y1007: 0.881
- fold change: KI67: 0.731
- fold change: LC3B: 1.097
- fold change: LIMK1 T508/LIMK2 T505: 0.795
- fold change: LKB1 S428: 1.269
- fold change: MARCKS S152/156: 1.071
- fold change: MCSFR Y723: 1.228
- fold change: MDM2 S166: 0.868
- fold change: MEK 1/2 S217/221: 0.770
- fold change: Met Y1234/1235: 1.033
- fold change: Musashi: 0.898
- fold change: NF-kappaB p65 S536: 0.817
- fold change: PAK1 S199/204-PAK2 S192/197: 1.221
- fold change: PAK1 T423/PAK2 T402: 1.028
- fold change: PDGFR alpha Y754: 1.144
- fold change: PDGFR beta: 0.705
- fold change: PDGFR beta Y716: 0.887
- fold change: PDK1 S241: 0.712
- fold change: PDL1: 34.857
- fold change: PKA C T197: 0.907
- fold change: PKC delta/theta S643/S676: 0.671
- fold change: PLK1 T210: 1.018
- fold change: PTEN: 0.726
- fold change: PTEN S380: 0.783
- fold change: PUMA: 0.919
- fold change: RAS TOTAL: 1.543
- fold change: Ras_GRF1: 1.021
- fold change: Rb S780: 0.674
- fold change: Ret Y905: 0.810
- fold change: Ros Y2274: 1.201
- fold change: S6 Ribosomal Protein S240/244: 0.817
- fold change: SAPK/JNK T183/Y185: 1.033
- fold change: SGK1 S78: 1.318
- fold change: SMAD2 S245/250/255: 0.760
- fold change: STAT3 S727: 1.040
- fold change: Shc Y317: 0.792
- fold change: Smad1 Ser463/465-Smad5 Ser463/465-Smad9 Ser465/467: 0.900
- fold change: Src Y527: 0.675
- fold change: Src family Y416: 0.471
- fold change: Stat 1 Y701: 0.937
- fold change: Stat3 Y705: 0.936
- fold change: Stat 5 Y694: 0.558
- fold change: TGF-beta: 0.952
- fold change: TNF alpha: 1.186
- fold change: Tuberin/TSC2 Y1571: 1.208
- fold change: VEGFR2 Y996: 0.828
- fold change: Vimentin: 0.896
- fold change: XIAP: 0.835
- fold change: c-Abl T735: 0.776
- fold change: c-Abl Y245: 0.846
- fold change: c-ErbB2/HER2: 1.938
- fold change: c-Kit Y703: 4.550
- fold change: c-Met TOTAL: 0.877
- fold change: c-Myc: 0.879
- fold change: c-Raf S338: 1.016
- fold change: eIF4G S1108: 0.791
- fold change: eNOS/NOS III S116: 0.902
- fold change: mTOR S2448: 1.034
- fold change: p27 Kip1: 0.925
- fold change: p27 T187: 0.685
- fold change: p38 MAP Kinase T180/Y182: 1.011
- fold change: p53: 0.997
- fold change: p53 S15: 0.990
- fold change: p70S6 Kinase: 0.674
- fold change: p70 S6 Kinase S371: 0.762
- fold change: p70 S6 Kinase T389: 0.773
- fold change: p70 S6 Kinase T412: 0.998
- fold change: p90RSK S380: 1.016
- fold change: p90RSK T359/S363: 0.884
- fold change: pYAP S127: 0.931
- fold change: AMPK T172* [1]: 0.598
- fold change: AMPK total* [1]: 1.69
- fold change: PKM2 Y105* [1]: 2.13
- fold change: PKM2 total* [1]: 1.01

Source: patent US20180177749A1, “USE OF CYP EXPRESSION TO DIRECT THERAPEUTIC INTERVENTION IN CANCER” (REGENTS OF THE UNIVERSITY OF MINNESOTA, priority 2016, published 2018)
